In patent publication US20080027113A1, “Methods of Using and Compositions Comprising Immunomodulatory Compounds for Treatment and Management of Macular Degeneration” (priority 2003, published 2008):

How the values were obtained:
TNF-α production [1] = experiment: Inhibition of TNF-α production following LPS-stimulation of human PBMC; format: cell-based; settings: for inhibition of LPS-stimulated production of TNF-α by PBMC: result in words; for IC50: human PBMC, LPS-stimulated, read-out: IC50 for inhibiting production of TNF-α following LPS-stimulation of PBMC
TNF-α production [2] = experiment: Inhibition of TNF-α production following LPS-stimulation of human whole blood; format: cell-based; settings: LPS-stimulated, read-out: IC50 for inhibiting production of TNF-α following LPS-stimulation of human whole blood
IL6 production = experiment: LPS-stimulated production of IL6 by PBMC; format: cell-based; settings: result in words
IL10 production = experiment: Production of anti-inflammatory cytokine IL10 by PBMC; format: cell-based; settings: result in words
[3] = tested on: patients with macular degeneration; experiment: Clinical study in patients with macular degeneration, adjuvant to photodynamic therapy with verteporfin; format: in vivo, human; settings: about 10 mg/day for 20 weeks as adjuvant to verteporfin photodynamic therapy
Method: Immunomodulatory compounds are administered in an amount of about 0.1 to about 25 mg per day to patients with macular degeneration. In a specific embodiment, clinical studies are performed with forty patients with macular degeneration, who are divided into two groups. The first group receives conventional treatment for closing the leaking choroidal vessels (characteristic of this disease) by photodynamic therapy with verteporfin. Ophthalmol 1999 (117): 1329-1345.
Progressive visual loss follows which requires the photodynamic therapy to be repeated.

IL1β production = experiment: LPS-stimulated production of IL1β by PBMC; settings: result in words

IC50 (TNF-α production [1]) [nM] | IC50 (TNF-α production [2]) [nM] | Compound | inhibition of LPS-stimulated production of TNF-α by PBMC (TNF-α production [1]) | inhibition of LPS-stimulated production of IL6 by PBMC (IL6 production) | production of the anti-inflammatory cytokine IL10 (IL10 production) | effect on neovascular cascade / duration of photodynamic therapy effect [3] | inhibition of LPS-stimulated production of IL1β by PBMC (IL1β production)
~100 | ~480 | Nc1cccc2c1CN(C1CCC(=O)NC1=O)C2=O (stereo not shown) | dose-dependent inhibition | dose-dependent inhibition | increased production | sufficiently hindered | dose-dependent inhibition
~24 | ~25 | Nc1cccc2c1C(=O)N(C1CCC(=O)NC1=O)C2=O (stereo not shown) | dose-dependent inhibition | dose-dependent inhibition | increased production | – | dose-dependent inhibition
